Laboratory results from US8785682B2, “Tetranor PGDM: a biomarker of PGD2 synthesis in vivo” (The Trustees of the University of Pennsylvania, priority 2007, dated 2014).
Where two headings read alike, the source gives them in different places.

Assays:
[1] = Infusion of exogenous PGD2 i.p. into mice, urinary PGD2 metabolites; assay type: in vivo, mouse
Procedure: (§1) Urine analysis: ^18O2-2,3-dinor-11β-PGF2α, and ^18O^2-11β-PGF2α were added to 1 milliliter (ml) of human urine or […] of mouse urine and were allowed to equilibrate for 15 minutes. […] The resulting residue was then reconstituted with 100 μl of 5% acetonitrile in water and was filtered by centrifugation.
(§2) The ESI source used nitrogen for both sheath and auxiliary gas and was set at 70 and 5 (arbitrary units), respectively. The mass spectrometer was operated in the negative ion mode with a capillary temperature of 350° C. and a spray voltage of 2.0 kV. […] The transitions for endogenous 2,3-dinor-11β-PGF2α and ^18O2-2,3-dinor-11β-PGF2α, were m/z 325→145 and m/z 329→145 with CE 13 eV, respectively. They were m/z […] and m/z 357→197 for 9α,11β-PGF2α and ^18O2-9α,11β-PGF2α with CE 24 eV.
Studies in mice: All studies were performed following protocol review and approval by the Institutional Animal Care and Use Committee (IAUCC) of the University of Pennsylvania. (i) Infusion studies: vehicle or PGD2 [20, 150 or 500 μg] was infused i.p. into twelve-week-old male C57/BL6 mice (n=5 per group). Urine was collected for 24 hours in metabolic cages for analysis of PGD2 metabolites. (ii) PGDS knockouts: Urine was collected for 24 hours from three- to four-month-old male wild type mice, L-PGDS knockout mice (kindly provided by Dr. Yoshihiro Urade, Osaka, Japan) and H-PGDS knockout mice (kindly provided by Dr. Yoshihide Kanaoka, Boston, Mass.), all on a C57/BL6 background (n=15 for WT and LPGDS knockouts and n=10 for H-PGDS knockouts).
(§3) Results are expressed as mean+/−SEM.

biosynthesis of PGD2 [2] = experiment: Aspirin single dose in healthy volunteers, urinary PGD2 metabolites; assay type: in vivo, human; settings: mean±SEM
Procedure: as §1, §2
(§4) Clinical Studies: Four clinical studies were performed.
In a fourth study, a single dose of aspirin (325 mg) was administered to healthy volunteers (n=18; 9 males and 9 females). Urinary PGD2 metabolites were assessed at time 0 in spot urines and 0-4 hours in urine collected from 0-4 hrs after dosing.
as §3

PGD2 levels = experiment: Urinary tetranor PGDM in patients undergoing PTCA; assay type: in vivo, human; settings: for Level of tetranor-PGDM, Post-PTCA, no aspirin / Level of tetranor-PGDM, Pre-PTCA, no aspirin / Level of tetranor-PGDM, During-PTCA, no aspirin: patient (n=1) on clopidogrel and no aspirin
Description: PGD2 levels were studied in patients undergoing percutaneous transluminal coronary angioplasty (PTCA). PTCA is a common non-surgical treatment for opening obstructed coronary arteries. During PTCA, a balloon-tipped catheter is threaded from an artery in the groin to the trouble spot in the artery of the heart. The balloon is then inflated, thereby compressing the plaque and opening (dilating) the narrowed coronary artery so that blood flow is improved. In some instances, an expandable metal stent is also inserted; stents are wire mesh tubes used to counteract further constriction. The inclusion and exclusion criteria for participation in the PGD2 level assessment were as follows. Inclusion: • a. Males and females between the ages of 18-99. • b. […] Treated with any dose of aspirin (acetylsalicylic acid; ASA) daily for at least 5 days OR • 2. […] Treated with an alternative antiplatelet therapy, such as clopidogrel, due to an aspirin hypersensitivity or PMDs preference OR • 4. […] No aspirin therapy at all. • c. Patients presenting to the emergency room (ER) with Acute Coronary Syndrome (ACS) who will have a PTCA. • d. Patients with stable angina or positive stress tests scheduled for a cardiac catheterization. Exclusion: • a. History of unstable diabetes (Hgb A1c>8 or FBS>200). • b. Uncontrolled hypertension (SBP>180, DBP>100). • c. History of an acute confounding disease as judged on clinical screen that according to the investigator may interfere with interpretation of the study results, or compromise the safety of a potential subject. • d. […] Nineteen (19) subjects scheduled for elective PTCA and/or who presented to the emergency room with acute coronary syndrome and subsequently ordered a PTCA were screened according to the inclusion and exclusion criteria. […] Urine was collected from each subject at three times. […] Urine samples were kept at −80° C. The tetranor PDGM level in each sample was then determined by stable isotope dilution, tandem mass spectrometric quantification, following thawing of the sample. The tetranor PGDM level was normalized to the quantity in milligrams (mg) of urine creatinine.

biosynthesis of PGD2 [3] = test system: biosynthesis of PGD2
Procedure: (§5) In a second study, niacin (dose was 400 mg or 600 mg) was administered to two healthy male volunteers. Urinary PGD2 metabolites were assessed in spot urines collected at the following time points before (time 0) and after (1, 2, 3, 4, 5, 6 hours) niacin administration.

[4] = Procedure: as §5
biosynthesis of PGD2 [5] = experiment: Rofecoxib single dose in healthy volunteers, urinary PGD2 metabolites; assay type: in vivo, human; settings: rofecoxib 25 mg single dose, 0 vs 4 hours
Procedure: as §1, §2, §4
In a third study, 18 healthy volunteers (9 male and 9 female) received, in random order, a single dose of placebo or rofecoxib (25 mg) under double-blind conditions, separated by washout periods of at least 2 weeks. Urinary PGD2 metabolites were assessed at 0 and 4 hours in spot urine samples that were collected 30 minutes after voiding.
as §3

[6] = mice, 20, 150 or 500 μg PGD2 i.p.
[7] = mice, maximal dose 500 ug PGD2 i.p., 24 h urine, mean±SEM
[8] = time 0, before aspirin 325 mg single dose
[9] = niacin 400 mg or 600 mg, spot urines 0-6 hours

With `CCCCC[C@H](O)/C=C/[C@H]1C(=O)C[C@H](O)[C@@H]1C/C=C\CCCC(=O)O` [PGD2, prostaglandin D2] the “fractional conversion of PGD2 to each metabolite” value [1, 6] was “uninfluenced by dose”, the “response of all 3 urinary metabolites to PGD2 infusion” value [1, 6] was “increased dose dependently” and the “infused PGD2 excreted as the tetranor PGDM metabolite in mouse urine” value ([1]; mice, i.p. infusion) was 3-10%. The “urinary 2,3-dinor-11β-PGF2α level attained after PGD2 infusion” value [1, 7] was 809±346 ng/mg creatinine, the “urinary 11β-PGF2α level attained after PGD2 infusion” value [1, 7] was 207±67 ng/mg creatinine and the “urinary tetranor PGDM level attained after PGD2 infusion” value [1, 7] was 2498±792 ng/mg creatinine.
With `CC(=O)Oc1ccccc1C(=O)O` [aspirin, acetylsalicylic acid] the “urinary tetranor PGDM level following aspirin” value (biosynthesis of PGD2 [2]; 0-4 hrs after aspirin 325 mg single dose, p<0.001) was 0.86±0.07 ng/mg creatinine, the “urinary 2,3-dinor-11β-PGF2α level following aspirin” value (biosynthesis of PGD2 [2]; 0-4 hrs after aspirin 325 mg single dose, p<0.01) was 0.32±0.04 ng/mg creatinine and the “urinary 2,3-dinor-11β-PGF2α level before aspirin” value (biosynthesis of PGD2 [2]; [8]) was 0.63±0.11 ng/mg creatinine. For the same compound, the “urinary tetranor PGDM level before aspirin” value (biosynthesis of PGD2 [2]; [8]) was 1.71±0.21 ng/mg creatinine, the “Level of tetranor-PGDM, Post-PTCA, 81 mg aspirin” value (PGD2 levels; patients (n=3) on daily 81 mg aspirin, urine after procedure) was 3.1 ng/mg creatinine and the “Level of tetranor-PGDM, Pre-PTCA, 81 mg aspirin” value (PGD2 levels; patients (n=3) on daily 81 mg aspirin, urine before procedure) was 2.6 ng/mg creatinine. The “Level of tetranor-PGDM, During-PTCA, 81 mg aspirin” value (PGD2 levels; patients (n=3) on daily 81 mg aspirin, urine during procedure) was 1.8 ng/mg creatinine, the “Level of tetranor-PGDM, Post-PTCA, 325 mg aspirin” value (PGD2 levels; patients on daily 325 mg aspirin, urine after procedure) was 3.1 ng/mg creatinine and the “Level of tetranor-PGDM, Pre-PTCA, 325 mg aspirin” value (PGD2 levels; patients on daily 325 mg aspirin, urine before procedure) was 2.9 ng/mg creatinine. For the same compound, the “Level of tetranor-PGDM, During-PTCA, 325 mg aspirin” value (PGD2 levels; patients on daily 325 mg aspirin, urine during procedure) was 2.8 ng/mg creatinine.
With `COC(=O)[C@H](c1ccccc1Cl)N1CCc2sccc2C1` [clopidogrel] the “Level of tetranor-PGDM, Post-PTCA, no aspirin” value (PGD2 levels; urine after procedure) was 13.1 ng/mg creatinine, the “Level of tetranor-PGDM, Pre-PTCA, no aspirin” value (PGD2 levels; urine before procedure) was 11.5 ng/mg creatinine and the “Level of tetranor-PGDM, During-PTCA, no aspirin” value (PGD2 levels; urine during procedure) was 26.3 ng/mg creatinine.
In the case of `O=C(O)c1cccnc1` [niacin], the “relationship between metabolite excretion and the doses of niacin” value (biosynthesis of PGD2 [3]; 400 mg vs 600 mg) is reported as “not apparent”, the “time of fall of urinary metabolites to basal levels after dosing” value (biosynthesis of PGD2 [3]; niacin 400 mg or 600 mg) is reported as 5 to 6 h and the “time of peak of urinary tetranor PGDM and 2,3-dinor-11β-PGF2α after dosing” value (biosynthesis of PGD2 [3]; niacin 400 mg or 600 mg) is reported as 2 to 3 h. For the same compound, the “effect on urinary 2,3-dinor-11β-PGF2α” value (biosynthesis of PGD2 [3]; [9]) was “elevated”, the “effect on urinary tetranor PGDM” value (biosynthesis of PGD2 [3]; [9]) was “elevated” and the “time after which flushing had dissipated” value ([4]; niacin 400 mg or 600 mg oral) was 2 to 3 h. The “flushing after oral administration” value ([4]; niacin 400 mg or 600 mg, two volunteers, face and upper part of the body) was “intense flush”.
With `CS(=O)(=O)c1ccc(C2=C(c3ccccc3)C(=O)OC2)cc1` [rofecoxib] the “effect on urinary 2,3-dinor-11β-PGF2α” value (biosynthesis of PGD2 [5]) was “failed to depress” and the “effect on urinary tetranor PGDM” value (biosynthesis of PGD2 [5]) was “failed to depress”.
In the case of `O=C(O)CCCCC(=O)CC[C@H]1C(=O)C[C@H](O)[C@@H]1CCC(=O)O` [tetranor PGDM, 11,15-dioxo-9α-hydroxy-2,3,4,5-tetranor-prostan-1,20-dioic acid], the “Level of tetranor-PGDM, Post-PTCA, no aspirin” value (PGD2 levels; urine after procedure) is reported as 13.1 ng/mg creatinine, the “Level of tetranor-PGDM, Pre-PTCA, no aspirin” value (PGD2 levels; urine before procedure) is reported as 11.5 ng/mg creatinine and the “Level of tetranor-PGDM, During-PTCA, no aspirin” value (PGD2 levels; urine during procedure) is reported as 26.3 ng/mg creatinine.
